Three molecules from patent US11091478B2 (Fochon Pharmaceuticals, Ltd., priority 2017, dated 2021) can be followed below.

pIC50: −log10 of the molar value.

The subject of one assay is DOHH2 cells. In words: Cell proliferation assay (MTS), DOHH2 cells, 120 h. The format is cell-based. As to conditions: Homo sapiens, DOHH-2, 120 h. The method in brief: (§1)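 RS4;11 and DOHH2 cells at 5000 cells/well in RPMI-1640 with 10% FBS were treated with compound at 1.5–10000 nM final, nine points, at 37 °C, 5% CO2. Exposure was 72 h for RS4;11 and 120 h for DOHH2. MTS was added for 2 h, absorbance read at 490/650 nm, and IC50 calculated.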

In the next assay the test system is RS4;11 cells. The assay can be described thus: Cell proliferation assay (MTS), RS4;11 cells, 72 h. The format is cell-based. As to conditions: Homo sapiens, RS4-11, 72 h. The gist of the method:
as §1

One may read the pIC50 as the IC50 on a negative log10 scale, so that one unit is a factor of ten. Lower therefore signals a large IC50. On to `COc1ccc([C@H]2COc3cc(S(=O)(=O)NC(=O)c4ccc(N5CCN(CC6=C(c7ccc(Cl)cc7)CC(C)(C)CC6)CC5)cc4Oc4cnc5[nH]ccc5c4)cc([N+](=O)[O-])c3N2)cc1` [Example 2-176, (S)-2-((1H-pyrrolo[2,3-b]pyridin-5-yl)oxy)-4-(4-((4′-chloro-5,5-dimethyl-3,4,5,6-tetra-hydro-[1,1′-biphenyl]-2-yl)methyl)piperazin-1-yl)-N-((3-(4-methoxyphenyl)-5-nitro-3,4-dihydro-2H-benzo[b][1,4]oxazin-7-yl)sul-fonyl)benzamide], for which the pIC50 in the assay on DOHH2 cells was 6.26; in the assay on RS4;11 cells, 7.19.
The corresponding values for `CC1(C)CCC(CN2CCN(c3ccc(C(=O)NS(=O)(=O)c4cc5c(c([N+](=O)[O-])c4)O[C@H](CN4CCOCC4)CO5)c(Oc4cnc5[nH]ccc5c4)c3)CC2)=C(c2ccc(Cl)cc2)C1` [Example 5-3, (R)-2-((1H-pyrrolo[2,3-b]pyridin-5-yl)oxy)-4-(4-((4′-chloro-5,5-dimethyl-3,4,5,6-tetrahydro-[1,1′-biphenyl]-2-yl)methyl)piperazin-1-yl)-N-((2-(morpholinomethyl)-8-nitro-2,3-dihydrobenzo[b][1,4]dioxin-6-yl)sulfonyl)benzamide] are 7.92 and 8.40.
The corresponding values for `CCN=S1(=O)CCN(CC[C@@H]2COc3cc(S(=O)(=O)NC(=O)c4ccc(N5CCN(CC6=C(c7ccc(Cl)cc7)CC(C)(C)CC6)CC5)cc4Oc4cnc5[nH]ccc5c4)cc([N+](=O)[O-])c3N2)CC1` [Example 2-128, (R)-2-((1H-pyrrolo[2,3-b]pyridin-5-yl)oxy)-4-(4-((4′-chloro-5,5-dimethyl-3,4,5,6-tetra-hydro-[1,1′-biphenyl]-2-yl)methyl)piperazin-1-yl)-N-((3-(2-(1-(ethylimino)-1-oxido-1λ^6-thiomorpholino)ethyl)-5-nitro-3,4-di-hydro-2H-benzo[b][1,4]oxazin-7-yl)sulfonyl) benzamide] are 7.55 and 7.70.
